IC50, Activity and inhibition data for 14 molecules are collected here from ChEMBL document CHEMBL1141279, “Benzylphenethylamine alkaloids from Hosta plantaginea with inhibitory activity against tobacco mosaic virus and acetylcholinesterase” (J Nat Prod, 2007).

Activity calls are given as the source filed them. The rule behind the calls is not given here.

In one test the target is Acetylcholinesterase (Homo sapiens, UniProt P22303).
Test [1] relates to Tobacco mosaic virus. The experiment in a line: Antiviral activity against Tobacco mosaic virus U1 after 72 hrs by half leaf method. The test is classed as functional, organism-based. As to conditions: for IC50: U1, 72 h.
The test system of test [2] is Tobacco mosaic virus. The experiment in a line: Antiviral activity against Tobacco mosaic virus U1 at 1 ug/mL after 72 hrs by half leaf method. The test is classed as functional. Conditions: U1, 72 h.

Sequence of Acetylcholinesterase (P22303 whole entry): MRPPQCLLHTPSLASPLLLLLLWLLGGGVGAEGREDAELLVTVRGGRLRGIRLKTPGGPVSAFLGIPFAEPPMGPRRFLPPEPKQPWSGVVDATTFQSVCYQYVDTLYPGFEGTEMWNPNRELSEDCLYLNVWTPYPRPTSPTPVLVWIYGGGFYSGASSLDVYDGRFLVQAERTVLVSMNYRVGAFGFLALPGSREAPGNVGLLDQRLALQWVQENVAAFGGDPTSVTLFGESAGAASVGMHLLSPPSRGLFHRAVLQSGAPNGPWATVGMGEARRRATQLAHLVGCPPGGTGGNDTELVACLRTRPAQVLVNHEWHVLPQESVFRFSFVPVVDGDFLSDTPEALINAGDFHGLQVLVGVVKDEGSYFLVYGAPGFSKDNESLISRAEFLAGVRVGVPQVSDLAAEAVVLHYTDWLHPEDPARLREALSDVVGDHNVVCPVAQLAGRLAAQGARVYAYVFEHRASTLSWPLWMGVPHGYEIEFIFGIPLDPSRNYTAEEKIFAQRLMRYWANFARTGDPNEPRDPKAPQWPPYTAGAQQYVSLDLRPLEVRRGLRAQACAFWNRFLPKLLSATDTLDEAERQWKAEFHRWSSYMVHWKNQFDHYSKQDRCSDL
Description for Acetylcholinesterase: Inhibition of AChE by Ellman method

Consider `COc1cc2c(c(OC)c1OC)C(=O)O[C@]21[C@H](O)[C@@H](O)C=C2CCN(C)[C@H]21`, for which half-maximal inhibition on Acetylcholinesterase (IC50) was put at 113 µM.

Consider `O=C1N[C@H]2[C@H](O)[C@H](O)[C@@H](O)C[C@@H]2c2cc3c(cc21)OCO3`, for which, in the test on Tobacco mosaic virus [1], half-maximal inhibition (IC50) required 1.8 µM.

As for `CC(=O)O[C@H]1[C@H]2c3cc4c(cc3CN3CCC(=C[C@@H]1O)[C@H]23)OCO4`, the IC50 (in general, the concentration needed to halve the response being measured) at Acetylcholinesterase came out at 0.96 µM.

`COc1cc2c(cc1OC)[C@]1(OC2=O)[C@H](O)[C@@H](O)C=C2CCN(C)[C@H]21` gave an IC50 against Acetylcholinesterase of 2.32 µM. Further, in the test with Tobacco mosaic virus [1], the outcome was inactive.

`CO[C@@H]1C=C[C@@]23c4cc5c(cc4[C@H](O)N(C[C@@H]2O)[C@H]3C1)OCO5`: in the test on Tobacco mosaic virus [1], the result was inactive.

As to `COc1cc2c(c(OC)c1OC)C(=O)O[C@@H]1CC=C3CCN(C)[C@H]3[C@H]21`, in the test on Tobacco mosaic virus [1], the outcome was inactive.

As for `O[C@@H]1C=C[C@@]23c4cc5c(cc4CN(C[C@@H]2O)[C@H]3C1)OCO5`, the outcome in the test on Tobacco mosaic virus [1] was inactive.

On Acetylcholinesterase, `CO[C@@H]1C=C[C@@]23c4cc5c(cc4CN(C[C@@H]2O)[C@H]3C1)OCO5` [(+)-HAEMANTHAMINE] showed a half-maximal inhibitory concentration (IC50) of 452 µM.

For `COc1ccc2c3c(c4cc(OC)c(OC)cc4c2c1)C[C@H]1CCCN1C3` [(-)-ANTOFINE], in the test on Tobacco mosaic virus [2], testing at 1 µg/mL gave an inhibition of 65%.

At Acetylcholinesterase, `COc1cc2c(cc1OC)-c1cccc3c1N(CC3)C2` [ASSOANINE] showed an IC50 of 3.87 µM.

For `O[C@H]1[C@H]2c3cc4c(cc3CN3CCC(=C[C@@H]1O)[C@H]23)OCO4` [LYCORINE], half-maximal inhibition against Acetylcholinesterase (IC50) required 155 µM. Further, in the test with Tobacco mosaic virus [1], the outcome was inactive.

Molecule `Oc1ccc2c3c1O[C@H]1C[C@@H](O)C=C[C@@]31CCNC2` [NORSANGUININE] registered an IC50 against Acetylcholinesterase of 1.43 µM. Further, the outcome in the test with Tobacco mosaic virus [1] was inactive.

In the test on Tobacco mosaic virus [1], `NC(=O)c1ncn([C@@H]2O[C@H](CO)[C@@H](O)[C@H]2O)n1` [RIBAVIRIN] had an IC50 of 2990 µM.

On Acetylcholinesterase, `[O-]c1cc2c3c(c1)c1cc4c(cc1c[n+]3CC2)OCO4` [UNGEREMINE] displayed an IC50 of 3.85 µM.
